Measurements published in US8987502B2, “Oleanolic acid amidate derivatives, preparation methods and uses thereof” (Hangzhou Bensheng Pharmaceutical Co., Ltd., priority 2011, dated 2015).
In brackets after ≈: the same amount, converted by molar mass.

How the values were obtained:
K562/adr = experiment: MTT leukemia cell proliferation inhibition, K562/adr; format: cell-based; settings: Homo sapiens, 72 h
Text: (§1) Leukemia cell lines: leukemia cell lines: K562/adr (drug-resistant, chronic myeloid leukemia, CML), NB4 (acute promyelocytic leukemia, AML), Kasumi-1 (acute myeloid leukemia M2 type, AML-M2), Jurkat (acute lymphoblastic leukemia, ALL), all of which are donated by Cancer Research Institute of Zhejiang University, China; and H9 (acute lymphoblastic leukemia, ALL), which is purchased from China Center for Type Culture Collection (CCTCC).
(§2) Reagents: The standard sample of oleanolic acid (OA) is purchased from Hua Kang Pharmaceutical Raw Material Factory, Shifang City, Sichuan, China; and the amidated oleanolic acid derivatives are prepared according to the present invention.
(§3) Obtaining 6000 well-growing leukemia cells and inoculating them into wells of a 96-well cell culture plate. The culture medium is the 1640 cell culture medium containing 10% fetal bovine serum. After adding the amidated oleanolic acid derivatives of different concentrations and mixing uniformly, placing the plate in a carbon dioxide cell incubator (5% CO2) at 37° C. and incubated for 72 hours. Then the relative number of viable cells is determined by the MTT method. In this experiment, the cell proliferation inhibition rate in control group (not treated with any compound) is set as 0%.

NB4 = experiment: MTT leukemia cell proliferation inhibition, NB4; format: cell-based; settings: Homo sapiens, NB-4
Text: as §1, §2, §3

Kasumi-1 = experiment: MTT leukemia cell proliferation inhibition, Kasumi-1; format: cell-based; settings: Homo sapiens
Text: as §1, §2, §3

H9 = experiment: MTT leukemia cell proliferation inhibition, H9; format: cell-based, human
Text: as §1, §2, §3

Jurkat = experiment: MTT leukemia cell proliferation inhibition, Jurkat; format: cell-based; settings: Homo sapiens, 72 h
Text: as §1, §2, §3

RPMI8226 = experiment: MTT multiple myeloma cell proliferation inhibition, RPMI8226; format: cell-based; settings: Homo sapiens, RPMI-8226
Method: Multiple myeloma cell lines: RPMI8226 (multiple myeloma), purchased from Fuxiang Bio-tech Co. Ltd., Shanghai, China.
as §3

A549 = experiment: MTT solid tumor cell proliferation inhibition, A549; format: cell-based, human; settings: Homo sapiens
Method: (§4) Human solid tumor cell lines: Hep-2 (laryngeal carcinoma), A549 (human lung cancer), CaES-17 (esophageal cancer cell), PC-3 (prostate cancer), CNE (nasopharyngeal carcinoma cell), and SK-OV-3 (ovarian cancer cell), all of which are purchased from China Center For Type Culture Collection; RKO (human colon adenocarcinoma cell), MGC 803 (human gastric cancer cell), MG63 (osteosarcoma) and U87 MG (malignant glioma cell), all of which are purchased from Fuxiang Bio-tech Co. Ltd., Shanghai, China; PANC-1 (pancreatic cancer), Hep G2 (human liver cancer cell), Becap37 (human breast cancer cell), and Hela (human cervical cancer cell), all of which are donated by Cancer Research Institute of Zhejiang University, China.
(§5) Obtaining 4000 well-growing human solid tumor cells and inoculating them into wells of a 96-well cell culture plate. The culture medium is DMEM High Glucose cell culture medium containing 10% fetal bovine serum. The plate is placed in a carbon dioxide cell incubator (5% CO2) at 37° C. for 24 hours for incubation. After being added with the amidated oleanolic acid derivatives of different concentrations and mixed uniformly, the plate is placed in a carbon dioxide cell incubator (5% CO2) at 37° C. for 72 hours for incubation. Then the relative number of the living cells is determined by the MTT method. In this experiment, the cell proliferation inhibition rate in control group (not treated with any compound) is set as 0%.

PANC-1 = experiment: MTT solid tumor cell proliferation inhibition, PANC-1; format: cell-based, human
Method: as §4, §5

Becap37 = experiment: MTT solid tumor cell proliferation inhibition, Becap37; format: cell-based; settings: Homo sapiens
Method: as §4, §5

MG 63 = experiment: MTT solid tumor cell proliferation inhibition, MG 63; format: cell-based, human
Method: as §4, §5

Hep G2 = experiment: MTT solid tumor cell proliferation inhibition, Hep G2; format: cell-based; settings: Homo sapiens, HepG2
Method: as §4, §5

RKO = experiment: MTT solid tumor cell proliferation inhibition, RKO; format: cell-based; settings: Homo sapiens, 72 h
Method: as §4, §5

U87 MG = experiment: MTT solid tumor cell proliferation inhibition, U87 MG; format: cell-based, human; settings: Homo sapiens, U-87 MG, U87 MG, 72 h
Method: as §4, §5

Hela = experiment: MTT solid tumor cell proliferation inhibition, Hela; format: cell-based, human
Method: as §4, §5

CaES-17 = experiment: MTT solid tumor cell proliferation inhibition, CaES-17; format: cell-based, human; settings: Homo sapiens, CaEs17
Method: as §4, §5

CNE = experiment: MTT solid tumor cell proliferation inhibition, CNE; format: cell-based, human
Method: as §4, §5

Hep-2 = experiment: MTT solid tumor cell proliferation inhibition, Hep-2; format: cell-based, human; settings: Homo sapiens
Method: as §4, §5

MGC803 = experiment: MTT solid tumor cell proliferation inhibition, MGC803; format: cell-based, human
Method: as §4, §5

PC-3 = experiment: MTT solid tumor cell proliferation inhibition, PC-3; format: cell-based, human; settings: Homo sapiens
Method: as §4, §5

SK-OV-3 = experiment: MTT solid tumor cell proliferation inhibition, SK-OV-3; format: cell-based, human
Method: as §4, §5

[1] = 16 μg/mL compound, read-out: IR (inhibition rate)

IC50 (K562/adr; MTT): 8.53 µg/mL (≈ 15 µM) | IC50 (NB4; NB4, 72 h, MTT): 11.2 µg/mL (≈ 19.7 µM) | IC50 (Kasumi-1; Kasumi-1, 72 h, MTT): > 16 µg/mL | IC50 (H9; Homo sapiens, H9, 72 h, MTT): 10.7 µg/mL (≈ 18.9 µM) | IC50 (Jurkat; MTT): 15.3 µg/mL (≈ 27 µM) | IC50 (RPMI8226; RPMI8226, 72 h, MTT): 9.2 µg/mL (≈ 16.2 µM) | IC50 (A549; A549, 72 h, MTT): > 16 µg/mL | IC50 (PANC-1; Homo sapiens, PANC-1, 72 h, MTT): 14.7 µg/mL (≈ 25.9 µM) | IC50 (Becap37; Becap37, 72 h, MTT): > 16 µg/mL | IC50 (MG 63; Homo sapiens, MG 63, 72 h, MTT): 13.8 µg/mL (≈ 24.3 µM) | IC50 (Hep G2; Hep G2, 72 h, MTT): 18.5 µg/mL (≈ 32.6 µM) | IC50 (RKO; MTT): 14.7 µg/mL (≈ 26 µM) | IC50 (U87 MG; MTT): > 16 µg/mL | IC50 (Hela; Homo sapiens, Hela, 72 h, MTT): 9.43 µg/mL (≈ 16.6 µM) | IC50 (CaES-17; CaES-17, 72 h, MTT): > 16 µg/mL | IC50 (CNE; Homo sapiens, CNE, 72 h, MTT): 14 µg/mL (≈ 24.7 µM) | IC50 (Hep-2; Hep-2, 72 h, MTT): > 16 µg/mL | IC50 (MGC803; Homo sapiens, MGC-803, MGC803, 72 h, MTT): 13.6 µg/mL (≈ 23.9 µM) | IC50 (PC-3; PC-3, 72 h, MTT): 18.3 µg/mL (≈ 32.2 µM) | IC50 (SK-OV-3; Homo sapiens, SK-OV-3, 72 h, MTT): 10.1 µg/mL (≈ 17.8 µM)
SMILES: CC1(C)CC[C@]2(NC(=O)c3cccnc3Cl)CC[C@]3(C)C(=CC[C@@H]4[C@@]5(C)CC[C@H](O)C(C)(C)[C@@H]5CC[C@]43C)[C@@H]2C1 [BS-OA-096]
inhibition at 16 µg/mL (K562/adr; [1]): 81.9% | inhibition at 16 µg/mL (NB4; NB4, 16 μg/mL compound, 72 h, read-out: IR (inhibition rate)): 100% | inhibition at 16 µg/mL (Kasumi-1; Kasumi-1, 16 μg/mL compound, 72 h, read-out: IR (inhibition rate)): 33.6% | improvement of cell inhibition rate as compared with oleanolic acid (H9; H9 cells): ~4 fold | inhibition at 16 µg/mL (H9; Homo sapiens, H9, 16 μg/mL compound, 72 h, read-out: IR (inhibition rate)): 84% | inhibition at 16 µg/mL (Jurkat; [1]): 55.3% | inhibition at 16 µg/mL (RPMI8226; RPMI8226, 16 μg/mL compound, 72 h, read-out: IR (inhibition rate)): 96.9% | inhibition at 16 µg/mL (A549; A549, 16 μg/mL compound, 72 h, read-out: IR (inhibition rate)): 18.7% | inhibition at 16 µg/mL (PANC-1; Homo sapiens, PANC-1, 16 μg/mL compound, 72 h, read-out: IR (inhibition rate)): 59.1% | improvement of inhibition rate as compared with oleanolic acid (PANC-1; PANC-1 cells): ~7 fold | inhibition at 16 µg/mL (Becap37; Becap37, 16 μg/mL compound, 72 h, read-out: IR (inhibition rate)): 39.3% | IR (inhibition rate) (MG 63; MG 63, 16 μg/mL compound, 72 h): 78.1% | inhibition at 16 µg/mL (Hep G2; Hep G2, 16 μg/mL compound, 72 h, read-out: IR (inhibition rate)): 40.1% | inhibition at 16 µg/mL (RKO; [1]): 59.4% | inhibition at 16 µg/mL (U87 MG; [1]): 38.5% | improvement of inhibition rate as compared with oleanolic acid (Hela; Hela cells): ~4 fold | inhibition at 16 µg/mL (Hela; Homo sapiens, Hela, 16 μg/mL compound, 72 h, read-out: IR (inhibition rate)): 88.9% | inhibition at 16 µg/mL (CaES-17; CaES-17, 16 μg/mL compound, 72 h, read-out: IR (inhibition rate)): 39.8% | improvement of inhibition rate as compared with oleanolic acid (CNE; CNE cells): ~2 fold | inhibition at 16 µg/mL (CNE; Homo sapiens, CNE, 16 μg/mL compound, 72 h, read-out: IR (inhibition rate)): 63.9% | inhibition at 16 µg/mL (Hep-2; Hep-2, 16 μg/mL compound, 72 h, read-out: IR (inhibition rate)): 20.6% | inhibition at 16 µg/mL (MGC803; Homo sapiens, MGC-803, MGC803, 16 μg/mL compound, 72 h, read-out: IR (inhibition rate)): 70% | improvement of inhibition rate as compared with oleanolic acid (MGC803; MGC803 cells): ~3 fold | inhibition at 16 µg/mL (PC-3; PC-3, 16 μg/mL compound, 72 h, read-out: IR (inhibition rate)): 48.1% | inhibition at 16 µg/mL (SK-OV-3; Homo sapiens, SK-OV-3, 16 μg/mL compound, 72 h, read-out: IR (inhibition rate)): 97% | improvement of cell inhibition rate as compared with oleanolic acid (SK-OV-3; SKOV-3 cells): > 12 fold
